Results on 3 compounds are retold here after US6130058A, “Human NMDA R2A receptor subunit and isoforms of the human NMDA-R1 receptor subunit and encoding cDNAs” (Merck Sharpe & Dohme Ltd., priority 1992, dated 2000).

The target in assay [1] is T1, recombinant R1a NMDA receptors (Homo sapiens, UniProt Q05586).
T1 construct: expressed in transfected cells
Description: [3H]-L-689,560 radioligand binding to membranes of R1a transfected Ltk- cells (population A). As to conditions: 1 nM radioligand, 100 μg protein, 2 hours on ice, dexamethasone-induced cells. As for the experimental part: Ltk^- cells were obtained from the Salk Institute for Biological Studies, San Diego, Calif. Cells were grown at 37° C., 5-8% CO2, in Modified Eagles Medium containing penicillin, streptomycin and 10% fetal calf serum. […] For co-transfection, Ltk^- cells were plated in dishes (approx. 2×10^5 cells/dish) and grown overnight. The transfection was performed by calcium phosphate precipitation using a kit (purchased from 5 Prime→3 Prime Products, Westchester, Pa.). Co-transfection was performed according to manufacturers' instructions, using 5 μg of each subunit DNA construct per 10 cm dish of cells. After 2 days in culture the cells were divided 1:8 into culture medium containing 1 mg/ml neomycin [Geneticin (obtainable from Gibco BRL, Paisley, Scotland, United Kingdom)]. After a further week the concentration was increased to 1.5 mg/ml, and then 2 mg/ml 1 week after that. Resistant clones of cells were isolated and subcloned using cloning cylinders. Subclones were analysed using radioligand binding: subclones were grown in 10 cm culture dishes, and when confluent changed into culture medium containing 1 μM dexamethasone (obtainable from Sigma Chemical Company, Poole, Dorset, United Kingdom). […] Rev. Pharmacol. […] Non-specific binding was determined in a parallel incubation containing 10 mM glycine. […]

The subject of the next assay is untransfected Ltk- cells. The assay can be described thus: Radioligand binding to untransfected Ltk- cells (control). Details: species or system mouse. As for the experimental part: (§1) The nature of the recombinant R1a NMDA receptors prepared as described in Example 3 was addressed by characterization of the glycine site binding pharmacology, using the glycine site antagonist [^3 H]-L-689,560. For radioligand binding assays, cells which had been induced by culture in dexamethasone containing medium for 3-5 days were scraped off into 5 mM Tris-Acetate, pH 7.0 at 4° C. (buffer 1) and pelleted (20,000 rpm, Sorvall RC5C centrifuge). The cell pellet was resuspended in buffer 1, homogenised using an Ultra-Turrax homogeniser and then pelleted as above. This was repeated once more, and the cells then resuspended in 50 mM Tris-Acetate, pH 7.0 at 4° C. (buffer 2) at a protein concentration of 1 mg/ml. […] After 2 hours incubation on ice the membranes were harvested onto filters using a Brandel cell harvester, washed with cold buffer 2, and bound radioactivity determined by scintillation counting. Non-specific binding was determined in a parallel incubation containing 10 mM glycine. […]
(§2) For radioligand binding assays, cells which had been induced by culture in dexamethasone, MgCl2 and D-AP5 containing medium for 3-5 days were scraped off into 5 mM Tris-Acetate, pH 7.0 at 4° C. […] After 2 hours at 25° C. in the presence of 30 μM glycine and 30 μM L-glutamate the membranes were washed with buffer 1 and bound radioactivity determined by scintillation counting. […]

Assay [2] deals with T2, recombinant R1a+R2A receptors (Homo sapiens, UniProt Q05586).
T2 construct: expressed in transfected cells
Description: [3H]-L-689,560 radioligand binding to membranes of R1a+R2A transfected Ltk- cells (population B). As to the method:
as §1, §2

The target of assay [3] is recombinant R1a+R2A NMDA receptors (Homo sapiens, UniProt Q05586+Q12879). The assay can be described thus: [3H]-dizocilpine radioligand binding to membranes of R1a+R2A transfected Ltk- cells (population B). As to conditions: 2 nM radioligand, 100 μg protein, 2 hours at 25° C., 30 μM glycine and 30 μM L-glutamate.
Description: Ltk^- cells were obtained from the Salk Institute for Biological Studies, San Diego, Calif. Cells were grown at 37° C., 5-8% CO2, in Modified Eagles Medium containing penicillin, streptomycin and 10% fetal calf serum. […] For co-transfection, Ltk^- cells were plated in dishes (approx. 2×10^5 cells/dish) and grown overnight. The transfection was performed by calcium phosphate precipitation using a kit (purchased from 5 Prime→3 Prime Products, Westchester, Pa.). Co-transfection was performed according to manufacturers' instructions, using 5 μg of each subunit DNA construct per 10 cm dish of cells. After 2 days in culture the cells were divided 1:8 into culture medium containing 1 mg/ml neomycin [Geneticin (obtainable from Gibco BRL, Paisley, Scotland, United Kingdom)]. […] Subclones were analysed using radioligand binding: subclones were grown in 10 cm culture dishes, and when confluent changed into culture medium containing 1 μM dexamethasone (obtainable from Sigma Chemical Company, Poole, Dorset, United Kingdom). […]
For radioligand binding assays, cells which had been induced by culture in dexamethasone, MgCl2 and D-AP5 containing medium for 3-5 days were scraped off into 5 mM Tris-Acetate, pH 7.0 at 4° C. […] Non-specific binding was determined in a parallel incubation containing 100 μM dizocilpine.
For assay [4], the target named is recombinant R1a+R2A NMDA receptor expressed by population B cells (Homo sapiens, UniProt Q05586+Q12879). Description: Whole cell patch clamp electrophysiology on population B cells. The assay is classed as cell-based. From the text: The nature of the NMDA receptor expressed by population B cells has been extensively characterised by electrophysiological techniques, using whole cell patch clamp.
A general note: Patch clamp records ionic current or voltage across a cell membrane.

In the case of `O=C(Nc1ccccc1)N[C@@H]1C[C@@H](C(=O)O)Nc2cc(Cl)cc(Cl)c21` (relative stereo) [[^3 H]-L-689,560], the “level of [3H]-L-689,560 bound” value is “up to 3700 fmols/mg protein” in assay [1] and “up to 500 fmols/mg protein” in assay [2]. Moreover, the “binding to untransfected Ltk- cells” value in the assay with untransfected Ltk- cells ([3H]-L-689,560 binding conditions, 1 nM) is “No binding”.
As to `C[C@]12N[C@H](Cc3ccccc31)c1ccccc12` [[^3 H]-dizocilpine, dizocilpine], the “level of [3H]-dizocilpine bound” value in assay [3] was “up to 200 fmols/mg protein”. Further, in the assay on untransfected Ltk- cells ([3H]-dizocilpine binding conditions, 2 nM), the “binding to untransfected Ltk- cells” value was “No binding”.
Take `O=C(O)[C@H]1C[C@@H](CP(=O)(O)O)CCN1` (relative stereo) [CGS 19,755]: in assay [4], the “antagonism of the response to glutamate and glycine” value is “antagonised”.
